Assay results taken from US8822646B2, “Cancer therapies and pharmaceutical compositions used therein” (ProNAi Therapeutics, Inc., priority 2005, dated 2014).

Columns and labels:
[1] = tested on: WSU-DLCL2 human diffuse large cell lymphoma; assay: Inhibition of tumor growth in WSU-DLCL2 non-Hodgkin's-lymphoma model with PNT-100 and vincristine (Example 7); assay type: in vivo, mice
Text: A non-Hodgkin's-lymphoma model (NHL) was used. The WSU-DLCL2 (Wayne State University diffuse large cell lymphoma) model is a very robust model of chemoresistant aggressive human diffuse large cell lymphoma. It was obtained from Dr. Ramzi Mohammad and Dr. Al-Katib and colleagues at the Karmanos Cancer Institute at Wayne State University. (See Al-Katib, A M, et al., Clin. Cancer Res. 4, 1305-1314 (1998); Mohammad, R, et al., Clin. Cancer Res. 8, 1277-1283 (2002); Mohammad, R M, et al., Mol. Cancer. Ther., 4, 13-21 (2005); Mohammad, R M, et al., Clin. Cancer Res. 6, 4950-4956, (2000).) The study was designed to administer five daily doses of 5 mg/kg PNT-100 (SEQ ID NO: 1251), and in certain cohorts, combination therapy with vincristine.

Daudi xenografts = assay: Efficacy of liposomal PNT-100 and rituximab in Daudi xenografts (Example 11); assay type: in vivo, mice; settings: doses and schedules of Table 5, FIGS. 7-9
Procedure: Daudi cells are a model of Burkett's lymphoma. Xenografts with Daudi cells were generated in mice as described in the previous examples. Liposomal PNT-100 was formulated as in example 9 and has similar properties and a concentration of 2.4 mg PNT-100 per ml. The mice were divided into 10 groups and treated as in Table 5.
Tumor volume was caliper measured. Studies were concluded when control animal xenografts reached 2000 mm^3. […] FIG. 8 is a Kaplan-Meyer plot, showing the percent of mice whose tumors have not yet reached 2000 mm^3 each day.

WSU-DLCL2 xenografts = assay: Efficacy of liposomal PNT-100 and rituximab in WSU-DLCL2 xenografts (Example 10); assay type: in vivo, C.B-17 SCID mice; settings: rituximab 20 mg/kg days 2 and 5; liposomal PNT-100 daily for five days; i.v.
Procedure: Xenografts with WSU-DLCL2 cells were generated in C.B-17 SCID mice between 4-6 weeks old as described in the previous examples. […] Human pharmaceutical grade rituximab (Biogen Idec-Genentech) was provided by Karmanos Cancer Institute. The mice were treated as in Table 4. [table] Animals were checked three times weekly for tumor growth by caliper measurements. An approximate tumor volume was calculated using the formula ½(a×b^2), where b is the smaller of two perpendicular diameters. Animals were sacrificed when individual animal tumor burden reached 2000 mm^3 or when the study was concluded 81 days post tumor trocar.

Substance	growth of tumors in mice ([1]; 5 mg/kg PNT-100, alone or with vincristine)	weight loss in the animals ([1]; after one dose, 5 mg/kg planned daily doses)	effect on tumor volume / time to 2000 mm^3 (Daudi xenografts)	complete regression of the tumor (shrinkage below measurable size for three consecutive time points), number of tumors (WSU-DLCL2 xenografts)	complete regression through the 81 day endpoint, number of tumors (WSU-DLCL2 xenografts)
PNT-100: PNT-100 oligonucleotide not methylated, bcl-2 oligonucleotide, SEQ ID NO:1251 (DNA CACGCACGCGCATCCCCGCCCGTG; sugars by position and backbone not given here; liposomal formulation)	decreases the growth tumors	noticeable weight loss	little effect		
Rituximab: human pharmaceutical grade rituximab (Biogen Idec-Genentech), antibody directed against CD20			little effect	seven out of eight	four out of eight
